From ChEMBL document CHEMBL4507292 (2021)
pKi: −log10 of the molar value.

How the values were obtained:
[1] = target: Sodium-dependent noradrenaline transporter (Homo sapiens, UniProt P23975); conditions: Compound concentration 10.0 uM
[2] = target: Tyrosine-protein kinase Fes/Fps (Homo sapiens) (UniProt P07332); conditions: Compound concentration 1000.0 nM
[3] = target: Beta-2 adrenergic receptor (Homo sapiens) (UniProt P07550); conditions: Compound concentration 10.0 uM
[4] = target: SRSF protein kinase 3 (Homo sapiens) (UniProt Q9UPE1); conditions: Compound concentration 1000.0 nM
[5] = target: Bone morphogenetic protein receptor type-1B (Homo sapiens) (UniProt O00238); conditions: Compound concentration 1000.0 nM
[6] = target: Serine/threonine-protein kinase TAO3 (Homo sapiens) (UniProt Q9H2K8); conditions: Compound concentration 1000.0 nM
Sequence of Serine/threonine-protein kinase TAO3 (Homo sapiens) (Q9H2K8 whole entry, canonical isoform): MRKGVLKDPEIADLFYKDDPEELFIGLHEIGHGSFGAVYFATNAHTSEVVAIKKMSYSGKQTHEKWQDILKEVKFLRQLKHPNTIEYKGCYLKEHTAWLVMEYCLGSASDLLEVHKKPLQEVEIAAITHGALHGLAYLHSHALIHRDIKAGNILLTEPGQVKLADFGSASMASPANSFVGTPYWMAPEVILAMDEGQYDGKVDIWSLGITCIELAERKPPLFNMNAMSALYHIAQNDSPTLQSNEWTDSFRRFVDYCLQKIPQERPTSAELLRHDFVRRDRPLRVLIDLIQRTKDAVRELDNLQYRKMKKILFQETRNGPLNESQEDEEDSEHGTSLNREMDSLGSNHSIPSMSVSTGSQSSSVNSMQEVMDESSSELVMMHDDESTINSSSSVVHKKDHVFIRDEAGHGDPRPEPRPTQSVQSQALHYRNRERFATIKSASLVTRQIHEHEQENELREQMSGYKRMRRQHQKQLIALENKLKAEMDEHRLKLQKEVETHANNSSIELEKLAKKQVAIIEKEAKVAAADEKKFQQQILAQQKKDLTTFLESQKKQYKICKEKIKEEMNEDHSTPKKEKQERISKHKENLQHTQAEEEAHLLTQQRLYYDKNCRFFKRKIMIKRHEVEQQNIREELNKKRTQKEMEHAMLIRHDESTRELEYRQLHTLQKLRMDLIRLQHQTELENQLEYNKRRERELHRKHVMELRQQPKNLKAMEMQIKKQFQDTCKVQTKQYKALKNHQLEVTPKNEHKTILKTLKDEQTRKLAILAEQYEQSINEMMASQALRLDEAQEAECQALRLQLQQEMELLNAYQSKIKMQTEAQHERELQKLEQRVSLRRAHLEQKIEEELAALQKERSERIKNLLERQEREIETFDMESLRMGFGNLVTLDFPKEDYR

[7] = test system: Phosphatidylinositol 4,5-bisphosphate 3-kinase catalytic subunit alpha isoform (Homo sapiens), P42336 [H1047Y]; conditions: Compound concentration 1000.0 nM
[8] = target: Serine/threonine-protein kinase NIM1 (Homo sapiens) (UniProt Q8IY84); conditions: Compound concentration 1000.0 nM
Sequence of Serine/threonine-protein kinase NIM1 (Homo sapiens) (Q8IY84 whole entry): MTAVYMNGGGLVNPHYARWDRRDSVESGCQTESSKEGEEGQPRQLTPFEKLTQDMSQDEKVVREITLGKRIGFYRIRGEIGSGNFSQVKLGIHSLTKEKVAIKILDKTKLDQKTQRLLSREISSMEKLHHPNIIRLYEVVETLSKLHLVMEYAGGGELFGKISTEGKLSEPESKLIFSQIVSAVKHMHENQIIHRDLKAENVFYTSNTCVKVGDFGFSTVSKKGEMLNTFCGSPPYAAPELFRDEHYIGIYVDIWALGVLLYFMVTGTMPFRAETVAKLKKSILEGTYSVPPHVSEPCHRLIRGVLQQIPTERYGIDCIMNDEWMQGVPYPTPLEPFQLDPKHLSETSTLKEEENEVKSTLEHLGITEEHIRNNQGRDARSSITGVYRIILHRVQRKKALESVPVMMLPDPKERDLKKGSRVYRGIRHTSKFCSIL

[9] = target: NT-3 growth factor receptor (Homo sapiens) (UniProt Q16288); conditions: Compound concentration 1000.0 nM
[10] = target: Kappa-type opioid receptor (Homo sapiens, UniProt P41145); conditions: Compound concentration 10.0 uM
[11] = target: Sigma non-opioid intracellular receptor 1 (Homo sapiens, UniProt Q99720); assay: GPCRScan assay: inhibition of Sigma 1; parameters: radioligand conc. used [nm] 4.0 – 5.0, parental cells HEKT
[12] = target: Cyclin-dependent kinase-like 3 (Homo sapiens) (UniProt Q8IVW4); conditions: Compound concentration 1000.0 nM
[13] = target: Bone morphogenetic protein receptor type-2 (Homo sapiens) (UniProt Q13873); conditions: Compound concentration 1000.0 nM
[14] = test system: Epidermal growth factor receptor (Homo sapiens), P00533 [UNDEFINED MUTATION]; conditions: Compound concentration 1000.0 nM
Sequence of Epidermal growth factor receptor (Homo sapiens), P00533 [UNDEFINED MUTATION] (P00533 whole entry, looked up, stated change not applied): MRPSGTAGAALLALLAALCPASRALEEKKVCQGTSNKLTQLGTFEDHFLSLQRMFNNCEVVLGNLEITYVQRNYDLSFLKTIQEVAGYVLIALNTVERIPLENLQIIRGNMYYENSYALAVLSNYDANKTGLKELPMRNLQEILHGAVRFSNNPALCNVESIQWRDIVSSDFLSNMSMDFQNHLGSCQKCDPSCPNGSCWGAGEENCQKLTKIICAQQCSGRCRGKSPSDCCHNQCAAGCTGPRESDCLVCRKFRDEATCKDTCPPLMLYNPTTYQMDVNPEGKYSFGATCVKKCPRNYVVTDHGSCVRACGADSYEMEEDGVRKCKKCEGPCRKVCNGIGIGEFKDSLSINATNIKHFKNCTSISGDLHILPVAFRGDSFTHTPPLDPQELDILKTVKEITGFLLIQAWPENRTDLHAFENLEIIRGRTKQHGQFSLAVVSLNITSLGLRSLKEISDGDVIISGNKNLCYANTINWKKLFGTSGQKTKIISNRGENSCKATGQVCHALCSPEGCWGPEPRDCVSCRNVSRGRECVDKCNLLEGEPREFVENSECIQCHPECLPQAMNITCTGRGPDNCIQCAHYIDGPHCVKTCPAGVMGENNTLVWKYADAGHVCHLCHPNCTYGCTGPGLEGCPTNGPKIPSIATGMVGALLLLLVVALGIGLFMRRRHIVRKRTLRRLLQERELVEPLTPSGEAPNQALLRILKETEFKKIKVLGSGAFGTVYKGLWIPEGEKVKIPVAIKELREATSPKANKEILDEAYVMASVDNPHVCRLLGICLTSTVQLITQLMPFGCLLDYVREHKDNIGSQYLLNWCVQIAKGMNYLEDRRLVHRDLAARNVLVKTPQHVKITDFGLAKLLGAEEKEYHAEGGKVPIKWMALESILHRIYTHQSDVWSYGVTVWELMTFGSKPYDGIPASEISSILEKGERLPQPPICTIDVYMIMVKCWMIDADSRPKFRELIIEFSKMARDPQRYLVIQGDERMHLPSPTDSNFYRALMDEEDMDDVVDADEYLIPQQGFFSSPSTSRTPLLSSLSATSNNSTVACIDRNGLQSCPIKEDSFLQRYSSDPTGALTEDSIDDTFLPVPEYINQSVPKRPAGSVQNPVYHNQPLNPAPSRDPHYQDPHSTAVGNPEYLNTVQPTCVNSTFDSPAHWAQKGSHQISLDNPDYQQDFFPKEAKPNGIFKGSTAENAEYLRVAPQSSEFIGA

[15] = test system: Tyrosine-protein kinase ABL1 (Homo sapiens), P00519 [F317L]; conditions: Compound concentration 1000.0 nM
[16] = target: Serine/threonine-protein kinase DCLK2 (Homo sapiens) (UniProt Q8N568); conditions: Compound concentration 1000.0 nM
[17] = target: Mitotic checkpoint serine/threonine-protein kinase BUB1 (Homo sapiens) (UniProt O43683); conditions: Compound concentration 1000.0 nM
[18] = target: Tyrosine-protein kinase JAK3 (Homo sapiens) (UniProt P52333); conditions: Compound concentration 1000.0 nM
[19] = target: Tyrosine-protein kinase Blk (Homo sapiens) (UniProt P51451); conditions: Compound concentration 1000.0 nM
[20] = target: Serine/threonine-protein kinase D3 (Homo sapiens) (UniProt O94806); conditions: Compound concentration 1000.0 nM
[21] = target: Serine/threonine-protein kinase tousled-like 2 (Homo sapiens) (UniProt Q86UE8); conditions: Compound concentration 1000.0 nM
[22] = target: Mast/stem cell growth factor receptor Kit (Homo sapiens) (UniProt P10721); conditions: Compound concentration 1000.0 nM
[23] = target: Mitogen-activated protein kinase 10 (Homo sapiens) (UniProt P53779); conditions: Compound concentration 1000.0 nM
[24] = target: Peripheral plasma membrane protein CASK (Homo sapiens) (UniProt O14936); conditions: Compound concentration 1000.0 nM
[25] = target: Serine/threonine-protein kinase PknB (Mycobacterium tuberculosis) (UniProt P9WI81); conditions: Compound concentration 1000.0 nM
[26] = test system: Leucine-rich repeat serine/threonine-protein kinase 2 (Homo sapiens), Q5S007 [G2019S]; conditions: Compound concentration 1000.0 nM
[27] = target: Serine/threonine-protein kinase PRP4 homolog (Homo sapiens) (UniProt Q13523); conditions: Compound concentration 1000.0 nM
[28] = target: Serine/threonine-protein kinase 36 (Homo sapiens) (UniProt Q9NRP7); conditions: Compound concentration 1000.0 nM
[29] = target: Macrophage-stimulating protein receptor (Homo sapiens) (UniProt Q04912); conditions: Compound concentration 1000.0 nM
[30] = target: Mitogen-activated protein kinase 11 (Homo sapiens) (UniProt Q15759); conditions: Compound concentration 1000.0 nM
[31] = target: Protein kinase C eta type (Homo sapiens) (UniProt P24723); conditions: Compound concentration 1000.0 nM
[32] = target: Serine/threonine-protein kinase N1 (Homo sapiens) (UniProt Q16512); conditions: Compound concentration 1000.0 nM
[33] = target: Calcium/calmodulin-dependent protein kinase type 1D (Homo sapiens) (UniProt Q8IU85); conditions: Compound concentration 1000.0 nM
Sequence of Calcium/calmodulin-dependent protein kinase type 1D (Homo sapiens) (Q8IU85 whole entry, looked up): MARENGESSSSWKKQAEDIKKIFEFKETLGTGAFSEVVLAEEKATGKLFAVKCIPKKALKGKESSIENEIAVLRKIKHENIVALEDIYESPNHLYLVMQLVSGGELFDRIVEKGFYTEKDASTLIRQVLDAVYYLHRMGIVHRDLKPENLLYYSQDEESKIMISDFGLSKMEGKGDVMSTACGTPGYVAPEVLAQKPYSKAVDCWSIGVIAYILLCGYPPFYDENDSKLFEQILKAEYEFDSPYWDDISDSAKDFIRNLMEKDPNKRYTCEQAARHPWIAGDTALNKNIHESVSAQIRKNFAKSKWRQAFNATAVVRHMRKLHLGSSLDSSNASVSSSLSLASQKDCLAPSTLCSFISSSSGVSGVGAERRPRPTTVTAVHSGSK

[34] = target: Mitogen-activated protein kinase 14 (Homo sapiens, UniProt Q16539); conditions: Compound concentration 1000.0 nM
Sequence of Mitogen-activated protein kinase 14 (Q16539 whole entry): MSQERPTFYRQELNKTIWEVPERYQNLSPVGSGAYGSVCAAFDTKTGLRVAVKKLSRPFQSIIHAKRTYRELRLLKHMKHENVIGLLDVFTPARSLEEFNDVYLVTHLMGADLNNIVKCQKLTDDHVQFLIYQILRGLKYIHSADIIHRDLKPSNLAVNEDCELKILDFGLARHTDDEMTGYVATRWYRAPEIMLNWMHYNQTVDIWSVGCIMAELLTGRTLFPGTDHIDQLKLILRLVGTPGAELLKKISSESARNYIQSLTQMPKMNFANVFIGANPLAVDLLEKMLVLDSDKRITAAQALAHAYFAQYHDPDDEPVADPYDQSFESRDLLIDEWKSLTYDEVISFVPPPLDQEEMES

[35] = target: Activin receptor type-2B (Homo sapiens) (UniProt Q13705); conditions: Compound concentration 1000.0 nM
[36] = target: Serine/threonine-protein kinase pim-3 (Homo sapiens) (UniProt Q86V86); conditions: Compound concentration 1000.0 nM
[37] = test system: ALK tyrosine kinase receptor (Homo sapiens), Q9UM73 [L1196M]; conditions: Compound concentration 1000.0 nM
Sequence of ALK tyrosine kinase receptor (Homo sapiens), Q9UM73 [L1196M] (Q9UM73 whole entry L1196M, looked up): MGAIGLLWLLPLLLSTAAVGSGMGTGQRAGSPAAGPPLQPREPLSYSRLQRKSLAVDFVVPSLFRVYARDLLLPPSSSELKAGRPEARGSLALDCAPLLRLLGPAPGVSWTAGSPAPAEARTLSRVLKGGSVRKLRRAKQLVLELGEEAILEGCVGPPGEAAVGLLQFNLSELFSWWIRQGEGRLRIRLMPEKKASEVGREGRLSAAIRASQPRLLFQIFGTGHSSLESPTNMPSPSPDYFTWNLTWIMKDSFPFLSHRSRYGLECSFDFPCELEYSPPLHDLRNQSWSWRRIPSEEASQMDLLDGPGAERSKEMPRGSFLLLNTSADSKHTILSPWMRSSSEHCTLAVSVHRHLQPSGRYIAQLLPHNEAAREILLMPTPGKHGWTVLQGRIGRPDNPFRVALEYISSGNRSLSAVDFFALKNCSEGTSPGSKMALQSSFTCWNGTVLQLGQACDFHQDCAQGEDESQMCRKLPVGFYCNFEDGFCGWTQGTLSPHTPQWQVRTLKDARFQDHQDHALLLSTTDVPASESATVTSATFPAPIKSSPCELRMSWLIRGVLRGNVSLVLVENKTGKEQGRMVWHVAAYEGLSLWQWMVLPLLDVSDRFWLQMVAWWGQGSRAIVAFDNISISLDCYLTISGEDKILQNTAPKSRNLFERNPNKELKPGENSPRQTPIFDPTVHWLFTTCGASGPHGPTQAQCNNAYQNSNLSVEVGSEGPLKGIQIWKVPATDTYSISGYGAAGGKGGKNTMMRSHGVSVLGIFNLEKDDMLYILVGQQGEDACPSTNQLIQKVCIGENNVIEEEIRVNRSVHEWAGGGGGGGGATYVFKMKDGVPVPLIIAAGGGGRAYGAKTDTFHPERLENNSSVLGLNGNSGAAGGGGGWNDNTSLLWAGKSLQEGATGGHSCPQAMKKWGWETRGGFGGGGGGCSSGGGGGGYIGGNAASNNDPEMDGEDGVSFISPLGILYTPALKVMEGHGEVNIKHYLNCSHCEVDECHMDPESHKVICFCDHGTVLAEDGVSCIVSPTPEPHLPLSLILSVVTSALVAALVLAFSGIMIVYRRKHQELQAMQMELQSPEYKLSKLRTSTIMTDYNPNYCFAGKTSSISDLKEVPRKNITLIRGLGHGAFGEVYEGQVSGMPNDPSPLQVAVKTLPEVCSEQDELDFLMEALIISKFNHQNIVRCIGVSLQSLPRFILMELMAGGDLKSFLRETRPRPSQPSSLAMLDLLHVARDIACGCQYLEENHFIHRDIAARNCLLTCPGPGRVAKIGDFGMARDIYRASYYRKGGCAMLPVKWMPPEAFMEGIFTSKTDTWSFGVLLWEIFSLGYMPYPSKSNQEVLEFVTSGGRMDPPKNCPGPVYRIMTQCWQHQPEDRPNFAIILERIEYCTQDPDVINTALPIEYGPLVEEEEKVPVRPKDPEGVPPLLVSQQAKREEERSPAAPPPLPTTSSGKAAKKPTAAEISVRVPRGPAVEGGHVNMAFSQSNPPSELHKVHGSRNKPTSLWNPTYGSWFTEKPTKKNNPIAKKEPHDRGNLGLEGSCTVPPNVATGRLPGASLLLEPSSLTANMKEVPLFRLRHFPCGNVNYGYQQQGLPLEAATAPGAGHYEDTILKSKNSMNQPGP

[38] = target: Tyrosine-protein kinase JAK1 (Homo sapiens) (UniProt P23458); conditions: Compound concentration 1000.0 nM
[39] = target: Atypical kinase COQ8A, mitochondrial (Homo sapiens) (UniProt Q8NI60); conditions: Compound concentration 1000.0 nM
[40] = target: T1, 5-hydroxytryptamine receptor 1A (Homo sapiens) (UniProt P08908); conditions: Compound concentration 10.0 uM
T1 sequence (whole entry): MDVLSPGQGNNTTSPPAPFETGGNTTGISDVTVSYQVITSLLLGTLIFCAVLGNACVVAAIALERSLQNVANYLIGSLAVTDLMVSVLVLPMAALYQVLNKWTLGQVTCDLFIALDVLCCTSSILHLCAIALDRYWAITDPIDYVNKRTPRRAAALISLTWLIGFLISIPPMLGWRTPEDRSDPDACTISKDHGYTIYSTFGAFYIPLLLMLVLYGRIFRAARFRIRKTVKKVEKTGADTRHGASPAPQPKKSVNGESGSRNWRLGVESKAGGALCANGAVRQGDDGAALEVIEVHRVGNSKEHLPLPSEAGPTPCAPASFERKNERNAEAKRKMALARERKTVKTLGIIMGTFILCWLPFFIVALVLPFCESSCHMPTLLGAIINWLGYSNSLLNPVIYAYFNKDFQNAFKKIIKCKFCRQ

| Compound | inhibition [1] | residual activity [2] | inhibition [3] | residual activity [4] | residual activity [5] | residual activity [6] | residual activity [7] | residual activity [8] | residual activity [9] | inhibition [10] | pKi [11] | residual activity [12] | residual activity [13] | residual activity [14] | residual activity [15] | residual activity [16] | residual activity [17] | residual activity [18] | residual activity [19] | residual activity [20] | other results |
| --- | --- | --- | --- | --- | --- | --- | --- | --- | --- | --- | --- | --- | --- | --- | --- | --- | --- | --- | --- | --- | --- |
| Cc1c(C(=O)O)cc(-c2ccc(C3CCNCC3)cc2)c2ccc(-c3ccc(C(F)(F)F)cc3)cc12 [PPTN-NC] | 11.2% | 100% | 27.8% | 100% | 100% | 100% | 100% | 92% | 100% | 27.9% | 5.93 | 100% | 100% | 100% | 100% | 100% | 100% | 100% | 100% | 100% | residual activity [21]: 100%; residual activity [22]: 84%; residual activity [23]: 100%; residual activity [24]: 100%; residual activity [25]: 100%; residual activity [26]: 100%; residual activity [27]: 100%; residual activity [28]: 86%; residual activity [29]: 100%; residual activity [30]: 100%; residual activity [31]: 100%; residual activity [32]: 100%; residual activity [33]: 100%; residual activity [34]: 100%; residual activity [35]: 88%; residual activity [36]: 100%; residual activity [37]: 100%; residual activity [38]: 79%; residual activity [39]: 100%; inhibition [40]: 1.01% |
| O=C(O)c1cc(-c2ccc(C3CCNCC3)cc2)c2ccc(-c3ccc(C(F)(F)F)cc3)cc2c1 [PPTN] | 23.6% | 100% | 38.9% | 82% | 100% | 100% | 84% | 94% | 100% | 41.7% | 5.93 | 94% | 100% | 100% | 100% | 100% | 100% | 100% | 86% | 100% | residual activity [21]: 100%; residual activity [22]: 99%; residual activity [23]: 100%; residual activity [24]: 100%; residual activity [25]: 100%; residual activity [26]: 100%; residual activity [27]: 100%; residual activity [28]: 100%; residual activity [29]: 100%; residual activity [30]: 100%; residual activity [31]: 100%; residual activity [32]: 100%; residual activity [33]: 100%; residual activity [34]: 100%; residual activity [35]: 100%; residual activity [36]: 100%; residual activity [37]: 100%; residual activity [38]: 87%; residual activity [39]: 100%; inhibition [40]: 11.2% |
